Experimental data reported in PMC6760275, “Comparison of Zebrafish Larvae and hiPSC Cardiomyocytes for Predicting Drug-Induced Cardiotoxicity in Humans” (Toxicological Sciences, 2019).
Entries after “also recorded” stand apart in the source; their conditions may differ. Like-named read-outs stand apart in the source and are kept apart here.

Assays:
[1] = cited from earlier work; for market withdrawal due to cardiovascular adverse effects: ref Onakpoya et al., 2016, Siramshetty et al.; for cardiovascular clinical adverse effects: parent drug and/or metabolites, ref Zhang et al., 2012
zebrafish larvae = experiment: ZeCardio cardiotoxicity screen in zebrafish larvae (heart and blood flow imaging)
Procedure: Zebrafish (Danio rerio) were mated, staged, and raised by standard methods ([Westerfield, 2000]). The library screen was performed on double transgenic larvae for Tg[cmlc2: GFP] ([Huang et al., 2003]) and Tg[gata1: DsRed] ([Traver et al., 2003]). Tg[cmlc2: GFP] expresses green fluorescent protein (GFP) in cardiomyocytes and Tg[gata1: DsRed] expresses DsRed fluorescent protein in a subset of erythrocytes.
Determination of NOEC was achieved through an Acute Toxicity test performed on AB wildtype larvae from 3 to 96 hpf, as previously described ([Cornet et al., 2017]) (see Supplementary Table 1 for NOEC data for each compound). For the cardiotoxic drug screening, double transgenic zebrafish larvae for Tg[cmlc2: GFP] and Tg[gata1: DsRed] were collected and raised in Embryo Medium (E3/60× Stock: 34.4 g NaCl, 1.52 g KCl, 5.8 g CaCl2·2H2O, 9.8 g MgSO4·7H2O, add 18 MOhm double distilled water up to 2000 ml; pH: 7.2) at 28.5°C in a 12 h light/12 h dark cycle. From 24 hpf onward, larvae were incubated with N-PhenylThioUrea (PTU) (Sigma-Aldrich, No. P7629) 0.2 mM to reduce pigmentation. Embryo medium was changed every day until 5 dpf, when double positive transgenic larvae were selected. […] Larvae were immersed in E3 with PTU 0.2 mM and Tricaine methanesulfonate (Sigma-Aldrich, No. E10521) at […] working concentration and distributed in 96-well plates in 100 µl per well. Then, 100 µl of compound solution was added at double NOEC concentration to reach the working concentration per compound: NOEC, DMSO 1%, and the final volume of 200 µl per larva per well. Negative control larvae were incubated in 200 µl 1% DMSO. Embryos were allowed to incubate in the compound solution for 4 h before. The developmental stage selected for analysis (5 dpf) was chosen because heart electrophysiological maturation and heart rhythm are stabilized from 96 hpf ([Tessadori et al., 2012]). One hundred and twenty hours post fertilization constitutes the latest stage to perform analysis after heart maturation and with conformation to ethical guidelines. Finally, the drug incubation time of 4 h was selected according to a previously established experimental set up ([Cornet et al., 2017]). Twelve embryos (1 embryo/well) were imaged for each compound, and the screening of the whole library was distributed over 15 experimental days. On each experimental day, 8 molecules were imaged: 7 drugs and the negative control 1% DMSO, to allow intraexperimental comparison.
The hardware conforming the screening platform allows zebrafish larvae sampling from multi-well plates to allow their position and automatic orientation in a glass capillary under a microscope to perform high-throughput imaging acquisition. It integrates 2 commercially available systems. First, an integrated VAST system (Union Biometrica) ([Pardo-Martin et al., 2010]), which consists of 2 complementary devices: (1) LP sampler, an automated fluid system capable of aspirating small to medium sized particles from multi-well plates and delivering them intact to the VAST BioImager, and (2) VAST BioImager, an automated fluid system, which positions zebrafish larva in a glass capillary. Once introduced in the glass capillary, the larva is recognized by an integrated imaging system and rotated to the desired angle for external imaging. Second, a Leica DM6B upright widefield microscope with a motorized Z-stage and Leica DFC9000 GTC (4.2 megapixel) CMOS camera particularly suited for high-speed fluorescent imaging applications achieves the fluorescent time-lapse imaging. The 2 systems, VAST and Leica microscope, communicate to coordinate the tasks of sampling, positioning, and imaging. To control the microscope, the LASX software (Leica) was used. To focus fluorescent structures in z-direction, the Autofocus function in LASX was used.

AB wildtype larvae = experiment: Acute Toxicity test for NOEC determination in AB wildtype zebrafish larvae, 3 to 96 hpf; assay type: in vivo, Danio rerio; settings: higher concentration than the working concentration
Procedure: Determination of NOEC was achieved through an Acute Toxicity test performed on AB wildtype larvae from 3 to 96 hpf, as previously described ([Cornet et al., 2017]) (see Supplementary Table 1 for NOEC data for each compound). […] Larvae were immersed in E3 with PTU 0.2 mM and Tricaine methanesulfonate (Sigma-Aldrich, No. E10521) at 168 mg/ml working concentration and distributed in 96-well plates in 100 µl per well. Then, 100 µl of compound solution was added at double NOEC concentration to reach the working concentration per compound: NOEC, DMSO 1%, and the final volume of 200 µl per larva per well. Negative control larvae were incubated in 200 µl 1% DMSO. Embryos were allowed to incubate in the compound solution for 4 h before. […] Twelve embryos (1 embryo/well) were imaged for each compound, and the screening of the whole library was distributed over 15 experimental days. On each experimental day, 8 molecules were imaged: 7 drugs and the negative control 1% DMSO, to allow intraexperimental comparison.

Pluricyte hiPSC-CMs = experiment: hiPSC-CM calcium transient FLIPR assay; settings: 10 μM; for detection as cardiotoxic in hiPSC-CMs (hiPSC-CM positive): 0.1% DMSO, any feature significant at any time point (5, 30, 90 min); for time point of detection in hiPSC-CMs: T1 5 min, T2 30 min, T3 90 min after compound addition
Procedure: hiPSC-CMs beat spontaneously under culture conditions and the beating pattern can be addressed by Ca^2+ dyes reporting the intracellular Ca^2+ concentration that is then measured by the fluorometric imaging plate reader (FLIPR).
This standard protocol was changed at 2 steps: hiPSC-CMs were not spun after thawing and the final concentration was 15 000 instead of 10 000 cells/well.
Twenty microliters of Ca-6 dye solution was added to each well of the assay plate and the assay plate was incubated for 2 h at 37°C, 5% CO2 in the dark. […] After baseline measurement, compounds were added and the fluorescence signal was measured 5, 30, and 90 min after compound treatment. Fifteen microliters of compound dilution was transferred from a compound source plate (40 μM, 0.4% DMSO) to the assay plate (already containing 25 μl cells and 20 μl Ca-6 dye) using FLIPR. The final compound concentration was 10 μM and 0.1% DMSO. Between each measurement the plate was returned to the same incubator. Five extracted features were quantified: beating frequency/beats per minute (bpm), amplitude (ampl), area under the curve (auc), peak width (pkw), and peak width at 10% amplitude (ppkw) are measures informing about the depolarization and repolarization kinetics. […] Each compound was assessed as triplicate at 3 time points after incubation (T1: 5 min, T2: 30 min, T3: 90 min). A measurement was taken prior to compound addition (baseline, not shown). As there was little variability in the baseline measurement, it was not necessary to normalize against baseline. An average of the data of each feature for each time point was fed into the statistical model to determine significant effects.
The LMMs include random effects accounting for the different sources of variation from the experimental design.

hERG = system: hERG; parameters: method as in Guo et al., 2007; Shi et al., 2015; settings: human patients and rat cardiomyocytes; ref Guo et al., 2007; Shi et al., 2015; cited from earlier work
[2] = 5 dpf larvae, 4 h incubation at NOEC, 1% DMSO, positive if any numerical feature significant or flag incidence above 30%

COc1cc(N)c(Cl)cc1C(=O)NC1CCN(CCCOc2ccc(F)cc2)CC1OC (stereo not drawn) [Cisapride]
market withdrawal due to cardiovascular adverse effects ([1]; humans): withdrawn from the market due to cardiotoxicity concerns
Bigeminy (zebrafish larvae; in vivo): Bigeminy
detection as cardiotoxic in zebrafish (zebrafish positive) (zebrafish larvae; in vivo): could detect all

CNCC(O)c1ccc(O)c(O)c1 (stereo not drawn) [Racepinephrine]
market withdrawal due to cardiovascular adverse effects ([1]; humans): withdrawn from the market
detection as cardiotoxic in zebrafish (zebrafish positive) (zebrafish larvae; in vivo): detection
heart rate (ventricular BPM) phenotype (zebrafish larvae; in vivo): tachycardia

CC(Cc1ccccc1)NCCC(c1ccccc1)c1ccccc1 (stereo not drawn) [Prenylamine]
developmental defects in the acute toxicity test (AB wildtype larvae): strong developmental defects
market withdrawal due to cardiovascular adverse effects ([1]; humans): withdrawn from the market

O=C(CCCN1CC=C(n2c(=O)[nH]c3ccccc32)CC1)c1ccc(F)cc1 [Droperidol]
market withdrawal due to cardiovascular adverse effects ([1]; humans): withdrawn from the market

O=C(O[C@@H]1C[C@@H]2C[C@H]3C[C@H](C1)N2CC3=O)c1c[nH]c2ccccc12 [Dolasetron]
detection as cardiotoxic in hiPSC-CMs (hiPSC-CM positive) (Pluricyte hiPSC-CMs): failed to detect
detection as cardiotoxic in zebrafish (zebrafish positive) (zebrafish larvae; in vivo): could detect all

CN(CCOc1ccc(NS(C)(=O)=O)cc1)CCc1ccc(NS(C)(=O)=O)cc1 [Dofetilide]
market withdrawal due to cardiovascular adverse effects ([1]; humans): withdrawn from the market
detection as cardiotoxic in zebrafish (zebrafish positive) (zebrafish larvae; in vivo): detection

CN1CCN(C2=Nc3cc(Cl)ccc3Nc3ccccc32)CC1 [Clozapine]
market withdrawal due to cardiovascular adverse effects ([1]; humans): withdrawn from the market

COc1ccc(CCN2CCC(Nc3nc4ccccc4n3Cc3ccc(F)cc3)CC2)cc1 [Astemizole]
cardiovascular clinical adverse effects ([1]; humans): promote cardiovascular clinical adverse effects through both the parent drug and metabolites
market withdrawal due to cardiovascular adverse effects ([1]; humans): withdrawn from the market due to cardiotoxicity concerns
detection as cardiotoxic in hiPSC-CMs (hiPSC-CM positive) (Pluricyte hiPSC-CMs): TP molecules for both models
Bigeminy (zebrafish larvae; in vivo): Bigeminy

CC(C)CC(N(C)C)C1(c2ccc(Cl)cc2)CCC1 (stereo not drawn) [Sibutramine]
cardiovascular clinical adverse effects ([1]; humans): promote cardiovascular clinical adverse effects through both the parent drug and metabolites
market withdrawal due to cardiovascular adverse effects ([1]; humans): withdrawn from the market due to cardiotoxicity concerns
detection as cardiotoxic in hiPSC-CMs (hiPSC-CM positive) (Pluricyte hiPSC-CMs): TP molecules for both models
time point of detection in hiPSC-CMs (Pluricyte hiPSC-CMs): detected only at T3; also recorded: only detected as cardiotoxic through the late assessment
detection as cardiotoxic in zebrafish (zebrafish positive) (zebrafish larvae; [2]): could detect all; also recorded: TP molecules for both models

CC(C)(Sc1cc(C(C)(C)C)c(O)c(C(C)(C)C)c1)Sc1cc(C(C)(C)C)c(O)c(C(C)(C)C)c1 [Probucol]
arrhythmic phenotypes in hiPSC-CMs (Pluricyte hiPSC-CMs): does not show arrhythmic phenotypes
detection as cardiotoxic in hiPSC-CMs (hiPSC-CM positive) (Pluricyte hiPSC-CMs): failed to detect; also recorded: cannot detect
detection as cardiotoxic in zebrafish (zebrafish positive) (zebrafish larvae; in vivo): detection
effect on hERG activity (hERG): interfere with hERG activity

CC(C)NCC(O)COc1cccc2ccccc12 (stereo not drawn) [Propranolol]
heart rate (ventricular BPM) phenotype (zebrafish larvae; in vivo): bradycardia

CCN[C@@H](C)Cc1cccc(C(F)(F)F)c1 [Dexfenfluramine]
market withdrawal due to cardiovascular adverse effects ([1]; humans): withdrawn from the market due to cardiotoxicity concerns
detection as cardiotoxic in hiPSC-CMs (hiPSC-CM positive) (Pluricyte hiPSC-CMs): failed to detect
detection as cardiotoxic in zebrafish (zebrafish positive) (zebrafish larvae; [2]): could detect all

CC(C)COCC(CN(Cc1ccccc1)c1ccccc1)N1CCCC1 (stereo not drawn) [Bepridil]
market withdrawal due to cardiovascular adverse effects ([1]; humans): withdrawn from the market
detection as cardiotoxic in zebrafish (zebrafish positive) (zebrafish larvae; in vivo): detection

CC(C)C[C@H]1C(=O)N2CCC[C@H]2[C@]2(O)O[C@](NC(=O)[C@@H]3C=C4c5cccc6[nH]c(Br)c(c56)C[C@H]4N(C)C3)(C(C)C)C(=O)N12 [Bromocriptine]
market withdrawal due to cardiovascular adverse effects ([1]; humans): withdrawn from the market
time point of detection in hiPSC-CMs (Pluricyte hiPSC-CMs): detected only at T3; also recorded: only detected as cardiotoxic through the late assessment
detection in zebrafish due to features other than ventricular BPM (zebrafish larvae; 5 dpf larvae, 4 h incubation at NOEC): detected for effects in features other than BPM; also recorded: enabled the detection
irregular beating of the heart (arrhythmia) (zebrafish larvae; 5 dpf larvae, 4 h incubation at NOEC, representative example): arrhythmia

COCCc1ccc(OCC(O)CNC(C)C)cc1 (stereo not drawn) [Metoprolol]
irregular beating of the heart (arrhythmia) (zebrafish larvae; in vivo): arrhythmia

CCCN1C[C@H](CSC)C[C@@H]2c3cccc4[nH]cc(c34)C[C@H]21 [Pergolide]
clinical adverse effect leading to withdrawal ([1]; humans, no reference given): valvulopathies
market withdrawal due to cardiovascular adverse effects ([1]; humans): withdrawn from the market
detection as cardiotoxic in hiPSC-CMs (hiPSC-CM positive) (Pluricyte hiPSC-CMs): failed to detect; also recorded: neither model detected

Cc1ccc(-c2cc(C(F)(F)F)nn2-c2ccc(S(N)(=O)=O)cc2)cc1 [Celecoxib]
market withdrawal due to cardiovascular adverse effects ([1]; humans): withdrawn from the market due to cardiotoxicity concerns
detection as cardiotoxic in hiPSC-CMs (hiPSC-CM positive) (Pluricyte hiPSC-CMs): failed to detect; also recorded: did not even detect
detection as cardiotoxic in zebrafish (zebrafish positive) (zebrafish larvae; in vivo): could detect all

COc1cccc2c1C(=O)c1c(O)c3c(c(O)c1C2=O)C[C@@](O)(C(=O)CO)C[C@@H]3O[C@H]1C[C@H](N)[C@H](O)[C@H](C)O1 [Doxorubicin]
cardiotoxicity in humans ([1]; ref Raj et al., 2014): promotes both acute and chronic cardiotoxicity in humans

CCCCCCCN(CC)CCCC(O)c1ccc(NS(C)(=O)=O)cc1 (stereo not drawn) [Ibutilide]
cardiotoxicity in humans ([1]; ref Stambler et al., 1997): can induce or worsen ventricular arrhythmias with fatal consequences

CC(C)NCC(O)c1cc(O)cc(O)c1 (stereo not drawn) [Metaproterenol]
market withdrawal due to cardiovascular adverse effects ([1]; humans): withdrawn from the market due to cardiotoxicity concerns
detection as cardiotoxic in zebrafish (zebrafish positive) (zebrafish larvae; in vivo): could detect all

CS(=O)(=O)c1ccc(C2=C(c3ccccc3)C(=O)OC2)cc1 [Rofecoxib]
cardiovascular clinical adverse effects ([1]; humans): heart attack and stroke
market withdrawal due to cardiovascular adverse effects ([1]; humans): withdrawn from the market due to cardiotoxicity concerns
detection as cardiotoxic in hiPSC-CMs (hiPSC-CM positive) (Pluricyte hiPSC-CMs): failed to detect; also recorded: did not even detect
